Experimental data taken from paper PMC3596085 (International journal for parasitology, drugs and drug …, 2012).
Read-outs that look alike come from different tables or passages of the source.

Experiments:
[1] = molecular target: T1, human CYP3A4 (Homo sapiens, UniProt P08684)
[2] = test system: NIH/3T3 mouse embryonic fibroblasts; experiment: Growth inhibition assay using 5-bromodeoxyuridine incorporation; type: cell-based; conditions: 50 μM, 24 h treatment, BrdU incorporation, vs DMSO
[3] = test system: human CYP51; experiment: Reconstitution of CYP51 activity in vitro; type: biochemical; conditions: 60′ reaction, lanosterol
[4] = Growth inhibition assay using 5-bromodeoxyuridine incorporation; type: cell-based, mouse; conditions: mouse
[5] = test system: Trypanosoma cruzi; conditions: ref Villalta et al., submitted for publication; cited from earlier work
[6] = test system: human CYP51; conditions: standard CYP51 reaction conditions; ref Lepesheva et al., 2008; cited from earlier work
[7] = molecular target: T. cruzi CYP51 (Trypanosoma cruzi, UniProt Q7Z1V1); experiment: CYP51 spectral titration; type: binding
T. cruzi CYP51 (Trypanosoma cruzi, UniProt Q7Z1V1), sequence (Q7Z1V1 whole entry): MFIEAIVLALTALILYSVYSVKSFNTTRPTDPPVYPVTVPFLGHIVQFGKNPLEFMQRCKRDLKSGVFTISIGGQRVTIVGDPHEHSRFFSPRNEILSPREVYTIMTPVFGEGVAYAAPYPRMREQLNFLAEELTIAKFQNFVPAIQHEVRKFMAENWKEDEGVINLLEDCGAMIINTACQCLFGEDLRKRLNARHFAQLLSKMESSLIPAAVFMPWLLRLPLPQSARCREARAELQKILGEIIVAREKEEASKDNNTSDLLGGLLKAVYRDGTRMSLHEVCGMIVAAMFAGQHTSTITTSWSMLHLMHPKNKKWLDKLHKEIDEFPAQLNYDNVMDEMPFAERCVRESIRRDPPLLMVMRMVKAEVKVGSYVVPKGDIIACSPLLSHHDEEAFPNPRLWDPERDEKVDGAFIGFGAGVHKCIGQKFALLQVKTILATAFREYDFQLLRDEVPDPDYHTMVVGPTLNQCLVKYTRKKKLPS

[8] = VNI oral pharmacokinetics in mouse plasma; type: in vivo; conditions: 25 mg/kg
[9] = Acute mice toxicity study; type: in vivo, mouse; conditions: female, Swiss Webster, mouse, in vivo, po
[10] = test system: Female Swiss Webster mice; experiment: Acute mice toxicity study; type: in vivo, mouse; conditions: oral, up to 400 mg/kg, up to 48 h
[11] = test system: T. brucei CYP51; conditions: standard CYP51 reaction conditions; ref Lepesheva et al., 2007; cited from earlier work
[12] = molecular target: T1, human CYP3A4; experiment: Inhibitory effect on CYP3A4
[13] = test system: T. cruzi CYP51; conditions: standard CYP51 reaction conditions; ref Lepesheva et al., 2007; cited from earlier work
[14] = test system: T. brucei; conditions: ref Lepesheva et al., 2010b; cited from earlier work
[15] = test system: T. cruzi CYP51 gene expression; conditions: ref Lepesheva et al., 2010a; cited from earlier work

T1 sequence (P08684 whole entry): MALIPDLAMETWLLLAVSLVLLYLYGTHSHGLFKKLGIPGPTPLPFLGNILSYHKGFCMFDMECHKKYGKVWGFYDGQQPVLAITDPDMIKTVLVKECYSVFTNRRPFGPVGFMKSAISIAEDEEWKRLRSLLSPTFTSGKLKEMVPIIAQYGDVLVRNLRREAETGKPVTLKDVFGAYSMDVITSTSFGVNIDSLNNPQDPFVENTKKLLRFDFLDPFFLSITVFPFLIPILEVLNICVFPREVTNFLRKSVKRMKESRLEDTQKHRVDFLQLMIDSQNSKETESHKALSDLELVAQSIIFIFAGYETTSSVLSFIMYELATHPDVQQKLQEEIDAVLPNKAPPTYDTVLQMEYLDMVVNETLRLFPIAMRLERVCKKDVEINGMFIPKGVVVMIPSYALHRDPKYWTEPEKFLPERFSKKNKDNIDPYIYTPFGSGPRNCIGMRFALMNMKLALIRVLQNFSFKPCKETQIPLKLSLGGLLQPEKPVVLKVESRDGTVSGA

## O=C(N[C@H](Cn1ccnc1)c1ccc(Cl)cc1Cl)c1ccc(-c2nnc(-c3ccccc3)o2)cc1 (single isomer, unassigned) [VNI S-enantiomer]
[1]
  IC50: 290 ± 19 nM
[2]
  Mammalian cell growth: % of viable 3T3 cells at 50 μM: 77.1 ± 2.6%
[3]
  CYP51 inhibition, Human (inhibitor/enzyme molar ratio for 50% inhibition): >200

## CC(=O)N1CCN(c2ccc(OCC3COC(Cn4ccnc4)(c4ccc(Cl)cc4Cl)O3)cc2)CC1 (stereo not drawn) [Ketoconazole, reference compound]
[4]
  viability at 24 h, 50 µM: 0%

## O=C(N[C@@H](Cn1ccnc1)c1ccc(Cl)cc1Cl)c1ccc(-c2nnc(-c3ccccc3)o2)cc1 [VNI, (R)-N-(1-(2,4-dichlorophenyl)-2-(1H-imidazol-1-yl)ethyl)-4-(5-phenyl-1,3,4-oxadiazol-2-yl)benzamide]
[5]
  effect in the murine model of Chagas disease: Curative effect
[6]
  inhibition of the human CYP51 ortholog: do not inhibit
[7]
  Kd: 90 ± 10 nM
[2]; 50 µM
  Mammalian cell growth: % of viable 3T3 cells at 50 μM: 76.8 ± 2.1%
[8]
  concentration at 2 h: 40 µM
  concentration at 8 h: > 20 µM
[9]
  NOAEL at 48 h: 400 mg/kg
[10]
  mortality: neither leads to mortality
[3]
  CYP51 inhibition, Human (inhibitor/enzyme molar ratio for 50% inhibition): >200
[11]
  inhibition of T. brucei CYP51 activity at 1:1 molar ratio to the enzyme: completely inhibit
[12]
  IC50: 405 ± 23 nM
[13]
  inhibition of T. cruzi CYP51 activity at 1:1 molar ratio to the enzyme: completely inhibit
[14]
  parasitemia in the mouse model of T. brucei infection: slows down parasitemia
[15]
  induction of T. cruzi CYP51 gene expression: do not induce

## VNI/VNF combination
[1]
  IC50: 3580 ± 271 nM
[2]
  Mammalian cell growth: % of viable 3T3 cells at 50 μM: 77.2 ± 6.3%
[3]
  CYP51 inhibition, Human (inhibitor/enzyme molar ratio for 50% inhibition): 15 ± 0.9
